Reference: article PMC7743948, “D-LL-31 enhances biofilm-eradicating effect of currently used antibiotics for chronic rhinosinusitis and its immunomodulatory activity on human lung epithelial cells” (PLoS ONE, 2020)
Square brackets hold non-standard residues; d marks the D form. Peptide text beside a SMILES is read from it.

Key:
[1] = tested on: hRBCs (human red blood cells); details: cited from earlier work
[2] = tested on: P. aeruginosa biofilm; assay: microbe, parasite or virus in culture; details: biofilm, 24 h
Procedure: (§1) The effects of both conventional antibiotics and AMPs against bacteria under biofilm-stimulating condition were determined using a transferable solid phase (TSP) pin lid, which resembles the ‘Calgary’ biofilm device as previously described with some modifications. Each strain (10^7 CFU/ml) was added to sterile 96-well plates (Nunclon™), then covered by a TSP pin lid (NUNC™, Roskilde, Denmark), and further incubated at 37 °C for 24 h. […] Additionally, the effect of TOB (2–836 μM or 1–391 μg/ml) against P. aeruginosa biofilm was also investigated. Then the plates were statically incubated at 37 °C for 24 h. A well free of antimicrobial agent was used as a control. After 24 h, bacterial survival was determined using the plate count technique on NA (Himedia®). The percentage killing of each antimicrobial agent was calculated using the formula [1 − (CFU sample/CFU control)] × 100% [15, 19]. […] Each experiment was performed independently three times in duplicate.

[3] = tested on: S. epidermidis biofilm; assay: microbe, parasite or virus in culture
Procedure: as §1

[4] = tested on: K. pneumoniae biofilm; assay: microbe, parasite or virus in culture; details: biofilm, 24 h
Procedure: as §1

[5] = tested on: A549 human lung epithelial cells; assay: Cytokine antibody array of culture supernatant; type: cell-based; details: 10 μM, 24 h
Procedure: The immunomodulatory effect of D-LL-31 on A549 human lung epithelial cells was investigated using cytokine antibody arrays. […] Cells in medium without peptide were used as a control. After incubation, the secreted cytokines in culture supernatant were detected using a human angiogenesis antibody array kit (AAH-ANG-1000-4, Norcross, GA) according to the manufacturer's instructions. […] Each experiment was performed independently two times in duplicate.

[6] = tested on: K. pneumoniae biofilm; assay: Checkerboard synergy of D-LL-31 with antibiotics on biofilm; type: cell-based, Klebsiella pneumoniae; details: D-LL-31 combined with AMX; IC50 alone compared with concentration of combination
Procedure: (§2) Bacterial viability in each interaction was determined using the plate count technique. The fractional inhibitory concentration index (FICI) values were calculated and interpreted in terms of synergism/antagonism as previously described. Each experiment was performed independently three times in duplicate.

[7] = tested on: S. epidermidis biofilm; assay: as above; type: cell-based, Staphylococcus epidermidis; details: D-LL-31 combined with AMX; IC50 alone compared with concentration of combination
Procedure: as §2

[8] = tested on: biofilm matrix of all tested strains; assay: Biofilm matrix reduction (AAA-model, CLSM, COMSTAT biomass), statements for all tested strains; type: cell-based
Procedure: (§3) Briefly, 1.5 ml of each overnight culture (10^8 CFU/ml) was added to a 24-well tissue culture plate (Nunclon™). The plate was covered with a sterile stainless-steel lid containing glass coverslips and aerobically incubated at 37°C for 24 h. […] All tested conditions were incubated at 37°C for 24 h. A well free of antimicrobial agent was used as a control. Following incubation, biofilms were fixed with 2.5% glutaraldehyde (Sigma-Aldrich) at 25°C for 3 h. The fixed bacterial biofilms on glass coverslips were stained with 50 μg/ml Alexa Fluor® 488 (Invitrogen, Carlsbad, CA) for 30 min. This stain reacts with exopolysaccharide matrixes of the biofilm. The glass coverslips were then mounted with 80% glycerol and the stained cells were photographed using a confocal laser-scanning microscope (CLSM) (TCS SP8-Leica Microsystems, Wetzlar, Germany). […] Each experiment was performed independently three times in duplicate.

[9] = tested on: A549 cells (human lung epithelial cells); details: 25 µM
Procedure: Briefly, A549 cells were maintained in RPMI-1640 (HyClone™, Marlborough, MA) with 10% fetal bovine serum (FBS) (HyClone™) and sub-cultured by standard methods using trypsin/EDTA (0.25% trypsin, 0.1% EDTA) (Corning™, Corning, NY). A standard curve of A549 cells (100–50000 cells/well) was constructed as previously described with some modification [43]. For MTT assay, cells were plated at a density of 2.5×10^4 cells/well in 96-well plates and grown overnight. […] Prepared A549 cells were then exposed to the diluted peptides for 24 h at 37°C, 5% CO2 atmosphere. Negative controls received either culture medium or PPB. Cells with 2% dimethyl sulfoxide (DMSO) (Sigma-Aldrich) were used as positive control. Cytotoxicity was assessed using MTT (0.5 mg/ml) according to the manufacturer's instructions (Sigma-Aldrich). Absorbance was measured at a wavelength of 570 nm with background subtraction at 630–690 nm. Then absorbance values from the MTT were converted to cells/well using a standard curve. Cell viabilities were calculated using the formula; [mean of cells in treated well]/[mean of cells in control well] × 100%. Each experiment was performed independently three times in triplicate.

[10] = tested on: all tested isolates (K. pneumoniae, S. epidermidis, P. aeruginosa, P. aeruginosa ATCC 27853); assay: Killing of planktonic bacteria (CFU count), statements for all tested isolates; type: cell-based; details: 1 μM, within 1 h, 5 x 10^5 CFU/ml, all tested strains
Procedure: A bacterial suspension without peptide served as a control. The samples were then serially diluted and cultivated on NA (Himedia®) and incubated for 24 h to allow colony counting. […] Each experiment was performed independently three times in duplicate.

[11] = tested on: P. aeruginosa biofilm matrix; assay: Biofilm matrix reduction (AAA-model, CLSM, COMSTAT biomass); type: cell-based, Pseudomonas aeruginosa; details: combination of D-LL-31 (0.5 μM) and TOB (0.2 μM), 24 h
Procedure: as §3

[12] = tested on: P. aeruginosa biofilm; assay: Checkerboard synergy of D-LL-31 with antibiotics on biofilm; type: cell-based, Pseudomonas aeruginosa; details: IC50 alone compared with concentration of combination
Procedure: as §2

[13] = tested on: all bacteria in biofilm; assay: Killing of bacteria grown as biofilm (TSP pin lid), statements for all bacteria; type: cell-based
Procedure: as §1

## CC[C@@H](C)[C@@H](NC(=O)[C@@H](CCCCN)NC(=O)[C@@H](CCC(=O)O)NC(=O)[C@@H](CCCCN)NC(=O)[C@@H](CO)NC(=O)[C@@H](CCCCN)NC(=O)[C@@H](CCCNC(=N)N)NC(=O)[C@@H](Cc1ccccc1)NC(=O)[C@@H](Cc1ccccc1)NC(=O)[C@@H](CC(=O)O)NC(=O)CNC(=O)[C@@H](CC(C)C)NC(=O)[C@H](N)CC(C)C)C(=O)NCC(=O)N[C@H](CCCCN)C(=O)N[C@H](CCC(=O)O)C(=O)N[C@H](Cc1ccccc1)C(=O)N[C@H](CCCCN)C(=O)N[C@H](CCCNC(=N)N)C(=O)N[C@@H](C(=O)N[C@@H](C(=O)N[C@H](CCC(N)=O)C(=O)N[C@H](CCCNC(=N)N)C(=O)N[C@@H](C(=O)N[C@H](CCCCN)C(=O)N[C@H](CC(=O)O)C(=O)N[C@H](Cc1ccccc1)C(=O)N[C@H](CC(C)C)C(=O)N[C@H](CCCNC(=N)N)C(=O)N[C@H](CC(N)=O)C(=O)N[C@H](CC(C)C)C(=O)O)[C@H](C)CC)C(C)C)[C@H](C)CC [D-LL-31] (H-[dL][dL]G[dD][dF][dF][dR][dK][dS][dK][dE][dK][dI]G[dK][dE][dF][dK][dR][dI][dV][dQ][dR][dI][dK][dD][dF][dL][dR][dN][dL]-OH; N-terminus and C-terminus assumed)
[1]
  hemolytic activity: less than 1%
[2]
  IC50: 4000 nM
[3]; 1.56–25 μM, P < 0.05, one-way ANOVA
  killing activity compared with all tested peptides: significantly higher
[3]; biofilm, 24 h
  IC50: 500 nM
[4]
  IC50: 600 nM
[5]
  expression of IFN-γ: not found
  expression of IL-6: did not induce
  levels of IL-4, IL-8, TNF-α and GRO-a, b and g: no significant change
[5]; P < 0.05
  ENA-78 secretion relative to controls: significantly secreted
  TIMP-2 in culture supernatant: significantly elevated
[6]
  Fold decrease of IC50 values: 8 fold
[7]
  Fold decrease of IC50 values: 16 fold
[8]; D-LL-31 in combination with antibiotics, 24 h, P < 0.001
  biofilm biomass relative to controls: Significant decreases
[8]; D-LL-31 treatment alone at IC50, 24 h, P < 0.01
  biofilm biomass relative to controls: Significant decreases
[8]; combination of D-LL-31 with AMX, 24 h, all tested strains
  biofilm matrix relative to controls: distinct decrease
[9]
  viable cells: more than 80%
[10]
  killing of bacterial cells, in words: completely killed
[11]
  biofilm matrix relative to controls: statistically significant reduction
[12]; D-LL-31 combined with AMX
  Fold decrease of IC50 values: 16 fold
[12]; D-LL-31 combined with TOB
  Fold decrease of IC50 values: 8 fold
[13]; 24 h biofilm, 24 h, read-out: IC50 values, range over all bacteria in biofilm
  IC50: 500 to 4000 nM
[13]; D-LL-31 alone and in combination with antibiotics, biofilm-stimulating condition
  IC70 values, range: 800 to 8700 nM
[13]; bacteria grown as biofilm, read-out: IC90 values, range
  IC90: 1000 to 25000 nM
